Experimental data reported in patent publication US7442807B2, “N-phenylpyrrole guanidine derivatives as melanocortin receptor ligands” (Action Pharma A/S, priority 2001, dated 2008).

Assays:
[1] = target: T1, MC4 (Homo sapiens, UniProt P32245); assay: Test 2. Affinity for the MC4-receptors (I125-NDP-αMSH binding); settings: I125-NDP-αMSH as ligand; read-out: Affinity for MC-receptors Ki MC4
Description: (§1) Test 2. Affinity for the MC3-receptors, the MC4-receptors and the MC5-receptors
(§2) The binding assays were carried out essentially as described by Szardenings et al, J Biol Chem 1997; 272; 27943-27948 and Schiöth et al, FEBS Lett 1997; 410; 223-228 using I125-NDP-αMSH as ligand.

[2] = target: T2, MC5 (Homo sapiens, UniProt P33032); assay: Test 2. Affinity for the MC5-receptors (I125-NDP-αMSH binding); settings: I125-NDP-αMSH as ligand; read-out: Affinity for MC-receptors Ki MC5
Description: as §1, §2

[3] = target: T3, MC3 (Homo sapiens, UniProt P41968); assay: Test 2. Affinity for the MC3-receptors (I125-NDP-αMSH binding); settings: I125-NDP-αMSH as ligand; read-out: Affinity for MC-receptors Ki MC3
Description: as §1, §2

[4] = target: T1, MC4; assay: Test 3. cAMP stimulation, MC4; format: cell-based; settings: response relative to α-MSH
Description: (§3) The stimulation of cAMP was carried out essentially as described by Schiöth et al, Br J Pharmacol 1998; 124; 75-82, however, the response is given relative to α-MSH.

[5] = target: MC1 (Homo sapiens, UniProt Q01726); assay: Test 3. cAMP stimulation, MC1; format: cell-based; settings: response relative to α-MSH
Description: as §3

[6] = target: T3, MC3; assay: Test 3. cAMP stimulation, MC3; format: cell-based; settings: response relative to α-MSH
Description: as §3

[7] = target: T2, MC5; assay: Test 3. cAMP stimulation, MC5; format: cell-based; settings: response relative to α-MSH
Description: as §3

[8] = target: MC1-receptor (Mus musculus, UniProt Q01727); assay: Test 1. Affinity for the MC1-receptor (I125-NDP-αMSH binding); settings: I125-NDP-αMSH as ligand; read-out: Affinity for MC-receptors Ki MC1
Description: Test 1. Affinity for the MC1-receptor
The binding assay was cared out essentially as described by Lunec et al, Melanoma Res 1992; 2; 5-12 using I^125-NDP-αMSH as ligand.

T3 sequence (P41968 whole entry): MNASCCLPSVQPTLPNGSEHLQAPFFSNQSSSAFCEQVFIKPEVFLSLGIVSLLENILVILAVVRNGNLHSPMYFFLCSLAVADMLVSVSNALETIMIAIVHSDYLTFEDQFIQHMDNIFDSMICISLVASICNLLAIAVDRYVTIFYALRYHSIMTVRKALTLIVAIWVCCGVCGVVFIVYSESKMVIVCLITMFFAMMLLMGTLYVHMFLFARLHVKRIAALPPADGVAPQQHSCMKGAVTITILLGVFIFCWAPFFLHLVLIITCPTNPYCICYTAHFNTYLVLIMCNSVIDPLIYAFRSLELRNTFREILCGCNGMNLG
T2 sequence (P33032 whole entry): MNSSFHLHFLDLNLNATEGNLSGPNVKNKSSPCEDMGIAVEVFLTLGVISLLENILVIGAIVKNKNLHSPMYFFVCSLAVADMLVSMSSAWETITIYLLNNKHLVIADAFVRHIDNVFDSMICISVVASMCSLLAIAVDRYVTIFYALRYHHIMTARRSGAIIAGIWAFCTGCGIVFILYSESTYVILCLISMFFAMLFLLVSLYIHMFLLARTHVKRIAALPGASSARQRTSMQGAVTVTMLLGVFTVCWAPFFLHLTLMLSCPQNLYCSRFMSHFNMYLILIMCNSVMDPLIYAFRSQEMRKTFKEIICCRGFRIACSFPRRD
T1 sequence (P32245 whole entry): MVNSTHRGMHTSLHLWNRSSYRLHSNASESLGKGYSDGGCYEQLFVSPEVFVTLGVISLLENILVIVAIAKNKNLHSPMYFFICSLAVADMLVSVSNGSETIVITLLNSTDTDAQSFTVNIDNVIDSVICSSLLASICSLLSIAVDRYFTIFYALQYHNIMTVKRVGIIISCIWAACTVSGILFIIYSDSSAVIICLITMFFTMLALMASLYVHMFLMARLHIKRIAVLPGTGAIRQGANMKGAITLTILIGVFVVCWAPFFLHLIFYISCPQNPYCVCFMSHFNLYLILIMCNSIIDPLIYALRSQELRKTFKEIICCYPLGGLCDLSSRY
Sequence of MC1 (Q01726 whole entry): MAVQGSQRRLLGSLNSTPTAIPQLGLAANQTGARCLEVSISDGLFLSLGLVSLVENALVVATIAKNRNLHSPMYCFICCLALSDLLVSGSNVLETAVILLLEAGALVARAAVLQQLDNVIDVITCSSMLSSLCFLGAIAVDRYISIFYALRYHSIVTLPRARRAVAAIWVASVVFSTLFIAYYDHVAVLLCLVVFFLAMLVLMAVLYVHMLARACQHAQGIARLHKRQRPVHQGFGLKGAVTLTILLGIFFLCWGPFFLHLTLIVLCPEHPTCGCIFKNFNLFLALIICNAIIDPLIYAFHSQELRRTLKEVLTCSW
Sequence of MC1-receptor (Q01727 whole entry): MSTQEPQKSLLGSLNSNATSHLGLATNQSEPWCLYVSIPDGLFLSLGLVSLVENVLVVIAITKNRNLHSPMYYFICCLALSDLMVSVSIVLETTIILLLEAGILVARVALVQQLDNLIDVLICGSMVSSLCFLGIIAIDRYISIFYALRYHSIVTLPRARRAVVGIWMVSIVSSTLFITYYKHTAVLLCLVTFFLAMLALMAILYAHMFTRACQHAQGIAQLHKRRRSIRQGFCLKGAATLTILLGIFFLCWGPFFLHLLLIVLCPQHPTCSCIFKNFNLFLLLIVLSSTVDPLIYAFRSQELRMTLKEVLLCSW

Ki [1] [µM] | Ki [2] [µM] | Molecule | Ki [3] [µM] | Influence on cAMP: cAMP agonist/plateau stim. α-MSH (%) MC4 [4] [%] | Influence on cAMP: cAMP agonist/plateau stim. α-MSH (%) MC1 [5] [%] | Influence on cAMP: cAMP agonist/plateau stim. α-MSH (%) MC3 [6] [%] | Influence on cAMP: cAMP agonist/plateau stim. α-MSH (%) MC5 [7] [%] | Ki [8] [µM]
0.07 | 7.8 | N=C(N)NN=Cc1cccn1-c1ccc(C(F)(F)F)cc1 [Compound 48, N-[(1-(4-Trifluoromethylphenyl)-1H-pyrrol-2-yl)methyleneamino]guanidine] |  |  |  |  |  | 
3.6 | 7.52 | N=C(N)NN=Cc1cccn1-c1cc(Cl)cc(Cl)c1 [Compound 50, N-[(1-(3,5-dichlorophenyl)-1H-pyrrol-2-yl)methyleneamino]guanidine] | 12.8 | 36 |  |  |  | 

Molecule | Ki [1] [µM] | Ki [2] [µM] | Ki [3] [µM] | Influence on cAMP: cAMP agonist/plateau stim. α-MSH (%) MC4 [4] [%] | Influence on cAMP: cAMP agonist/plateau stim. α-MSH (%) MC1 [5] [%] | Influence on cAMP: cAMP agonist/plateau stim. α-MSH (%) MC3 [6] [%] | Influence on cAMP: cAMP agonist/plateau stim. α-MSH (%) MC5 [7] [%] | Ki [8] [µM]
N-{1-[(4-Chlorophenyl)-1H-Pyrrol-2-yl]methylene-amino}guanidine [Compound 1] | 5.1 | 17.5 | 15.6 | 118 | 30 | 35 | 6 | 0.42
